From patent US20260183303A1, “PDK1 REGULATORY COMPOUND AND COMPOSITION CONTAINING THE SAME” (PROVIBIO CO., LTD., priority 2024, published 2026)

Test system: T cells isolated from mouse spleens
Assay: T cell proliferation inhibition (CFSE flow cytometry, anti-CD3/anti-CD28 activation)
Format: cell-based, C57BL/6 mice
Details: mouse spleen T cells, CD3/CD28 activated, cultured three days
Experimental: To verify the T cell proliferation inhibitory effect of the compounds according to the present invention, the following experiment was performed based on flow cytometry analysis using carboxyfluorescein diacetate succinimidyl ester (CFSE), a fluorescent dye that binds to intracellular molecules via covalent bonds.
Spleens were extracted from 7-week-old C57BL/6 mice, ground, and then separated into single cells using a strainer ([…], SPL). Red blood cells were removed using ACK (Ammonium-Chloride-Potassium) lysis buffer to isolate white blood cells.
Finally, using a MACS Magnetic Stand and LS column, T cells were isolated from the spleen.
The T cells isolated from the spleen were resuspended in 1 mL of free medium (RPMI-1640+200 U/mL penicillin+200 μg/mL streptomycin), and 0.3 μL of CFSE (10 mM) was added. The mixture was incubated at 37° C. for 5 minutes.
Free medium (10 mL) was added to stop the reaction, and the cells were centrifuged to obtain the cell pellet.
RPMI 1640 medium containing 10% FBS, 100 U/mL penicillin, 100 μg/mL streptomycin, and resuspended the cells. The cells were then seeded into a 96-well plate at a density of 2×10^5 cells per well and activated with CD3 and CD28 antibodies ([…]) to activate T cells.
The compound diluted in DMSO was added at concentrations of 10 nM, 100 nM, 1 μM, […], 30 μM, and 50 µM, with three wells per concentration, and cultured at 37° C. and 5% CO2 for three days. The cells were then analyzed using a FACS Canto instrument.
The proliferation inhibition rate (%) was calculated using the following formula: […]

With Nc1ncccc1C(=O)NCCCCCCCCCCCCNC1CCOC1 (stereo not shown) [Compound 128, 2-amino-N-(12-((tetrahydrofuran-3-yl)amino)dodecyl) nicotinamide] the “Proliferation inhibition rate (%)” value (100 nM) was 100.00%, the “Proliferation inhibition rate (%)” value (1 μM) was 100.00% and the “Proliferation inhibition rate (%)” value (10 μM) was 100.00%. The “Proliferation inhibition rate (%)” value (30 μM) was 100.00% and the “Proliferation inhibition rate (%)” value (50 μM) was 100.00%.
For CN(CCCCCCCCCCCCNC(=O)c1cccnc1N)C1CCCCC1 [Compound 34, 2-Amino-N-(12-(cyclohexyl(methyl)amino)dodecyl) nicotinamide], the “Proliferation inhibition rate (%)” value (100 nM) was 100.00%, the “Proliferation inhibition rate (%)” value (1 μM) was 100.00% and the “Proliferation inhibition rate (%)” value (10 μM) was 100.00%. The “Proliferation inhibition rate (%)” value (30 μM) was 100.00% and the “Proliferation inhibition rate (%)” value (50 μM) was 100.00%.
Work on CC(C)(C)OC(=O)N[C@@H]1CCCN(CCCCCCCCCCCCNC(=O)c2cccnc2N)C1 [Compound 117, tert-butyl-(R)-(1-(12-(2-aminonicotinamido)dodecyl)piperidin-3-yl)carbamate] yielded an inhibition at 0.01 µM (Mus musculus, T-cell, 72 h, 10 nM, read-out: Proliferation inhibition rate (%)) of -15.8%, an inhibition at 0.1 µM (Mus musculus, T-cell, 72 h, 100 nM, read-out: Proliferation inhibition rate (%)) of 100% and an inhibition at 1 µM (Mus musculus, T-cell, 72 h, 1 μM, read-out: Proliferation inhibition rate (%)) of 100%. It also gave an inhibition at 10 µM (Mus musculus, T-cell, 72 h, 10 μM, read-out: Proliferation inhibition rate (%)) of 100%, an inhibition at 30 µM (Mus musculus, T-cell, 72 h, 30 μM, read-out: Proliferation inhibition rate (%)) of 100% and an inhibition at 50 µM (Mus musculus, T-cell, 72 h, 50 μM, read-out: Proliferation inhibition rate (%)) of 100%.
CC1CN(C)C(CCCCCCCCCCCCNc2ccc3cncnc3n2)N1 (stereo not shown) [Compound 43] was tested, and the “Proliferation inhibition rate (%)” value (100 nM) was 100.00%, the “Proliferation inhibition rate (%)” value (1 μM) was 100.00% and the “Proliferation inhibition rate (%)” value (10 μM) was 100.00%. The “Proliferation inhibition rate (%)” value (30 μM) was 100.00% and the “Proliferation inhibition rate (%)” value (50 μM) was 100.00%.
In the case of CC(C)(C)OC(=O)N1CCN(CCCCCCCCCCCCNC(=O)c2cccnc2N)CC1 [Compound 111, tert-butyl-4-(12-(2-aminonicotinamido)dodecyl) piperazine-1-carboxylate], the “Proliferation inhibition rate (%)” value (10 nM) was 0.00%, the “Proliferation inhibition rate (%)” value (100 nM) was 100.00% and the “Proliferation inhibition rate (%)” value (1 μM) was 100.00%. The “Proliferation inhibition rate (%)” value (10 μM) was 100.00%, the “Proliferation inhibition rate (%)” value (30 μM) was 100.00% and the “Proliferation inhibition rate (%)” value (50 μM) was 100.00%.
With CC1CN(CCCCCCCCCCCCNC(=O)c2cccnc2N)C(C)CN1.Cl (stereo not shown) [Compound 36, 2-Amino-N-(12-(2,5-dimethylpiperazin-1-yl)dodecyl) nicotinamide hydrochloride] the “Proliferation inhibition rate (%)” value (100 nM) was 100.00%, the “Proliferation inhibition rate (%)” value (1 μM) was 100.00% and the “Proliferation inhibition rate (%)” value (10 μM) was 100.00%. The “Proliferation inhibition rate (%)” value (30 μM) was 100.00% and the “Proliferation inhibition rate (%)” value (50 μM) was 100.00%.
With CC(C)(C)OC(=O)NC1CCN(CCCCCCCCCCCCNC(=O)c2cccnc2N)CC1 [Compound 101, tert-Butyl (1-(12-(2-aminonicotinamido)dodecyl)piperidin-4-yl) carbamate] the “Proliferation inhibition rate (%)” value (10 nM) was −0.15%, the “Proliferation inhibition rate (%)” value (100 nM) was 100.00% and the “Proliferation inhibition rate (%)” value (1 μM) was 100.00%. The “Proliferation inhibition rate (%)” value (10 μM) was 100.00%, the “Proliferation inhibition rate (%)” value (30 μM) was 100.00% and the “Proliferation inhibition rate (%)” value (50 μM) was 100.00%.
In the case of Nc1ncccc1C(=O)NCCCCCCCCCCCCN1CCC(O)CC1 [Compound 48, 2-Amino-N-(12-(4-hydroxypiperidin-1-yl)dodecyl) nicotinamide], the “Proliferation inhibition rate (%)” value (100 nM) was 100.00%, the “Proliferation inhibition rate (%)” value (1 μM) was 100.00% and the “Proliferation inhibition rate (%)” value (10 μM) was 100.00%. For the same compound, the “Proliferation inhibition rate (%)” value (30 μM) was 100.00% and the “Proliferation inhibition rate (%)” value (50 μM) was 100.00%.
In the case of Nc1ncccc1C(=O)NCCCCCCCCCCCCN1CCN(CCO)CC1 [Compound 54, 2-Amino-N-(12-(4-(2-hydroxyethyl)piperazin-1-yl)dodecyl) nicotinamide], the “Proliferation inhibition rate (%)” value (100 nM) was 100.00%, the “Proliferation inhibition rate (%)” value (1 μM) was 100.00% and the “Proliferation inhibition rate (%)” value (10 μM) was 100.00%. For the same compound, the “Proliferation inhibition rate (%)” value (30 μM) was 100.00% and the “Proliferation inhibition rate (%)” value (50 μM) was 100.00%.
COC1CCN(CCCCCCCCCCCCNC(=O)c2cccnc2N)CC1 [Compound 94, 2-amino-N-(12-(4-methoxypiperidin-1-yl)dodecyl) nicotinamide] was tested, and the “Proliferation inhibition rate (%)” value (100 nM) was 100.00%, the “Proliferation inhibition rate (%)” value (1 μM) was 100.00% and the “Proliferation inhibition rate (%)” value (10 μM) was 100.00%. For the same compound, the “Proliferation inhibition rate (%)” value (30 μM) was 100.00% and the “Proliferation inhibition rate (%)” value (50 μM) was 100.00%.
CC(C)N1CCN(CCCCCCCCCCCCNC(=O)c2cccnc2N)CC1 [Compound 104, 2-Amino-N-(12-(4-isopropylpiperazin-1-yl)dodecyl) nicotinamide] was tested, and the “Proliferation inhibition rate (%)” value (10 nM) was 100.00%, the “Proliferation inhibition rate (%)” value (100 nM) was 100.00% and the “Proliferation inhibition rate (%)” value (1 μM) was 100.00%. For the same compound, the “Proliferation inhibition rate (%)” value (10 μM) was 100.00%, the “Proliferation inhibition rate (%)” value (30 μM) was 100.00% and the “Proliferation inhibition rate (%)” value (50 μM) was 100.00%.
In the case of CC1(C)CCN(CCCCCCCCCCCCNC(=O)c2cccnc2N)C1 [Compound 22, 2-Amino-N-(12-(3,3-dimethylpyrrolidin-1-yl)dodecyl) nicotinamide], the “Proliferation inhibition rate (%)” value (10 nM) was −0.80%, the “Proliferation inhibition rate (%)” value (100 nM) was 100.00% and the “Proliferation inhibition rate (%)” value (1 μM) was 100.00%. For the same compound, the “Proliferation inhibition rate (%)” value (10 μM) was 100.00%, the “Proliferation inhibition rate (%)” value (30 μM) was 100.00% and the “Proliferation inhibition rate (%)” value (50 μM) was 100.00%.
For COC1CCN(CCCCCCCCCCCCNC(=O)c2cccnc2N)C1 (stereo not shown) [Compound 32, 2-Amino-N-(12-(3-methoxypyrrolidin-1-yl)dodecyl) nicotinamide], the “Proliferation inhibition rate (%)” value (10 nM, listed as PBK-2024-024, 0.01 µM) was 0.29% and the “Proliferation inhibition rate (%)” value (50 μM) was 100.00%.
With Nc1ncccc1C(=O)NCCCCCCCCCCCCN1CCC2CCCCC2C1 (stereo not shown) [Compound 16, 2-Amino-N-(12-(Octahydroisoquinolin-2(1H)-Yl)Dodecyl) Nicotinamide] the “Proliferation inhibition rate (%)” value (1 μM) was 100.00%, the “Proliferation inhibition rate (%)” value (10 μM) was 100.00% and the “Proliferation inhibition rate (%)” value (30 μM) was 100.00%. For the same compound, the “Proliferation inhibition rate (%)” value (50 μM) was 100.00%.
For C[C@H]1CNCCN1CCCCCCCCCCCCNC(=O)c1cccnc1N.Cl [Compound 37, (S)-2-Amino-N-(12-(2-methylpiperazin-1-yl)dodecyl) nicotinamide hydrochloride], the “Proliferation inhibition rate (%)” value (1 μM) was 100.00%, the “Proliferation inhibition rate (%)” value (10 μM) was 100.00% and the “Proliferation inhibition rate (%)” value (30 μM) was 100.00%. The “Proliferation inhibition rate (%)” value (50 μM) was 100.00%.
For Nc1ncccc1C(=O)NCCCCCCCCCCCCn1ccc2c(Cl)c(I)cnc21 [Compound 109, 2-Amino-N-(12-(4-chloro-5-iodo-1H-pyrrolo[2,3-b]pyridin-1-yl)dodecyl) nicotinamide], the “Proliferation inhibition rate (%)” value (10 nM) was 0.15%, the “Proliferation inhibition rate (%)” value (100 nM) was 8.48% and the “Proliferation inhibition rate (%)” value (1 μM) was 20.91%. For the same compound, the “Proliferation inhibition rate (%)” value (10 μM) was 100.00%, the “Proliferation inhibition rate (%)” value (30 μM) was 100.00% and the “Proliferation inhibition rate (%)” value (50 μM) was 100.00%.
For CN1CCN(CCCCCCCCCCCCNC(=O)c2cccnc2F)CC1 [Compound 121, 2-fluoro-N-(12-(4-methylpiperazin-1-yl)dodecyl) nicotinamide], the “Proliferation inhibition rate (%)” value (10 nM) was 0.00%, the “Proliferation inhibition rate (%)” value (100 nM) was 0.00% and the “Proliferation inhibition rate (%)” value (1 μM) was 0.00%. For the same compound, the “Proliferation inhibition rate (%)” value (10 μM) was 30.00%, the “Proliferation inhibition rate (%)” value (30 μM) was 100.00% and the “Proliferation inhibition rate (%)” value (50 μM) was 100.00%.
With Nc1ncccc1C(=O)NCCCCCCCCCCCCN1CC(F)(F)C1 [Compound 122, 2-Amino-N-(12-(3,3-difluoroazetidin-1-yl)dodecyl) nicotinamide] the “Proliferation inhibition rate (%)” value (10 nM) was 0.00%, the “Proliferation inhibition rate (%)” value (100 nM) was 0.00% and the “Proliferation inhibition rate (%)” value (1 μM) was 80.00%. For the same compound, the “Proliferation inhibition rate (%)” value (10 μM) was 100.00%, the “Proliferation inhibition rate (%)” value (30 μM) was 100.00% and the “Proliferation inhibition rate (%)” value (50 μM) was 100.00%.
In the case of Nc1ncccc1C(=O)NCCCCCCCCCCCCN1CCc2ccccc2C1 [Compound 17, 2-Amino-N-(12-(3,4-dihydroisoquinolin-2(1H)-yl)dodecyl) nicotinamide], the “Proliferation inhibition rate (%)” value (10 nM, listed as PBK-2024-004, 0.01 µM) was 0.00%, the “Proliferation inhibition rate (%)” value (100 nM, listed as PBK-2024-004, 0.1 µM) was −14.00% and the “Proliferation inhibition rate (%)” value (1 μM, listed as PBK-2024-004, 1 µM) was 100.00%. The “Proliferation inhibition rate (%)” value (10 μM, listed as PBK-2024-004, 10 µM) was 100.00%.
